Data on 6 molecules can be found in patent US8586602B2, “Derivatives of 7 alkynyl-1,8 naphthyridones, preparation method thereof and use of same in therapeutics” (Sanofi, priority 2007, dated 2013).

Each structure is given as a SMILES string. pIC50: −log10 of the molar value. Several values for one entry are separate records, joined by “and”; a condition that tells them apart may be missing. Equal values may be shown once. Where a name gives a salt, the structure may show the parent alone.

T1 sequence (P35916 800-1297 limits assumed): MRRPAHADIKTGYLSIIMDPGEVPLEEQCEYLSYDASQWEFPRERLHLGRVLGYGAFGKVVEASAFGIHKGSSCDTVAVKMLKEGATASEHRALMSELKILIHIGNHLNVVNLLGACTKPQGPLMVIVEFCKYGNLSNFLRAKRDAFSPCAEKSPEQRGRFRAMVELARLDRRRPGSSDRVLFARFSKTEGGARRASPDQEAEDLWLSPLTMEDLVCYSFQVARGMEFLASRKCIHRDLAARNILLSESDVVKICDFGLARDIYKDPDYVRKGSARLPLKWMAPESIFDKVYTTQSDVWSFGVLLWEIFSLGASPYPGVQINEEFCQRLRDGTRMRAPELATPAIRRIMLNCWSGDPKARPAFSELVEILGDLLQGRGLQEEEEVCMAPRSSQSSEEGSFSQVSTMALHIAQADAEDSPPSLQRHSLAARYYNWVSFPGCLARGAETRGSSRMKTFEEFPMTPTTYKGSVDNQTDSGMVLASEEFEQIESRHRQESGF

The first data set concerns the target T1, VEGFR-3-TK (Homo sapiens, UniProt P35916).
T1 construct: purchased Cell Signaling 7790
Put plainly: Measurement of the tyrosine kinase activity of VEGFR-3 by ELISA (phosphorylation of poly Glu-Tyr). The data set is classed as biochemical. The conditions noted are these: VEGFR-3 ELISA, poly Glu-Tyr substrate, 30 μM ATP, 30 min at ambient temperature; read-out: IC50 (concentration which decreases the total activity of the enzyme by 50%). The procedure:
The compounds according to the invention have formed the subject of pharmacological assays which make it possible to determine their inhibitory effect on the VEGFR-3 enzyme.
Measurement of the Tyrosine Kinase Activity of VEGFR-3 by ELISA
The effect of the products is quantified by the concentration which decreases the total activity of the enzyme by 50% (IC50). For the determination of the IC50 values, the product is diluted in DMSO with a concentration range which extends from 3 to 1000 nM. The day before the manipulation, 125 μl of the poly Glu-Tyr substrate (250 μg/ml in 1×PBS without Ca^2+ or Mg^2+ or sodium bicarbonate) are deposited in each well of an ELISA plate (for example, an ELISA plate of the SIGMA Protein Tyrosine Kinase Assay kit, Ref. PTK-101). The plate is subsequently covered with an adhesive film and incubated overnight at 37° C. The following day, the wells are emptied by turning the plate over, washed by adding 300 μl of buffer solution (PBS+0.05% Tween 20) and dried by further incubation of the plate for 2 h at 37° C. A 90 μl reaction mixture is deposited onto each well. This mixture comprises the 1× kinase buffer to which 30 μM of ATP and the inhibitor at the desired concentration have been added. […]
Background: An ELISA detects its analyte on a solid surface through an enzyme-linked reagent.
Consider `CCn1c(N)c(C(=O)NC)c(=O)c2ccc(C#CC(C)(C)N)nc21` [Compound 4, 2-Amino-7-(3-amino-3-methylbut-1-yn-1-yl)-1-ethyl-N-methyl-4-oxo-1,4-dihydro-1,8-naphthyridine-3-carboxamide hydrochloride], for which the pIC50 is 6.35.

Consider `CCn1c(N)c(C(=O)NC)c(=O)c2ccc(C#CCOC)nc21` [Compound 5, 2-amino-1-ethyl-7-(3-methoxyprop-1-yn-1-yl)-N-methyl-4-oxo-1,4-dihydro-1,8-naphthyridine-3-carboxamide], for which the pIC50 was 6.46.

Tested on in another data set: not given
Test: not given
Details: not given
In turn, `CCn1c(N)c(C(=O)NC)c(=O)c2ccc(C#CC(C)(C)N)nc21` (as salt: hydrochloride) [Compound 4, 2-Amino-7-(3-amino-3-methylbut-1-yn-1-yl)-1-ethyl-N-methyl-4-oxo-1,4-dihydro-1,8-naphthyridine-3-carboxamide hydrochloride] had a melting point of 293 °C. Same read-out and setting: with `CCn1c(N)c(C(=O)NC)c(=O)c2ccc(C#CC(C)(COC)OC)nc21` (racemic) [Compound 1, (±)-2-Amino-7-(3,4-dimethoxy-3-methylbut-1-yn-1-yl)-1-ethyl-N-methyl-4-oxo-1,4-dihydro-1,8-naphthyridine-3-carboxamide] the figure was 185 to 187 °C; with `CCn1c(N)c(C(=O)NC)c(=O)c2ccc(C#CCNC(=O)OC)nc21` [Compound 2, Methyl {3-[7-amino-8-ethyl-6-(methylcarbamoyl)-5-oxo-5,8-dihydro-1,8-naphthyridin-2-yl]prop-2-yn-1-yl}carbamate], 255 °C and 250 °C.

In turn, `CCn1c(N)c(C(=O)NC)c(=O)c2ccc(C#CCOC)nc21` [Compound 5, 2-amino-1-ethyl-7-(3-methoxyprop-1-yn-1-yl)-N-methyl-4-oxo-1,4-dihydro-1,8-naphthyridine-3-carboxamide] displayed a melting point of 233 °C.

`CCn1c(N)c(C(=O)NC)c(=O)c2ccc(C#CC(C)(C)OCC(N)=O)nc21` [Compound 6, 2-Amino-7-[3-(2-amino-2-oxoethoxy)-3-methylbut-1-yn-1-yl]-1-ethyl-N-methyl-4-oxo-1,4-dihydro-1,8-naphthyridine-3-carboxamide] yielded a melting point of 204 °C.

By melting point is commonly meant the temperature of the solid-liquid transition.
